Literature values as cited in patent publication US12029733B2, “Treatment of sepsis and related inflammatory conditions by local neuromodulation of the autonomic nervous system” (Tulavi Therapeutics, Inc., priority 2016, dated 2024).

Assays:
FFA1 = FFA1 (Homo sapiens, UniProt O14842); conditions: marked *: FFA1 ERK activation (Smith et al. 2009) / aequorin reporter Ca2+ signaling (Kotarsky et al. 2003)
GPR120 = target: T1, GPR120 (Homo sapiens, UniProt Q5NUL3); conditions: fluorescent indicator measurement of Ca2+ mobilization
T1 sequence (Q5NUL3 1-361): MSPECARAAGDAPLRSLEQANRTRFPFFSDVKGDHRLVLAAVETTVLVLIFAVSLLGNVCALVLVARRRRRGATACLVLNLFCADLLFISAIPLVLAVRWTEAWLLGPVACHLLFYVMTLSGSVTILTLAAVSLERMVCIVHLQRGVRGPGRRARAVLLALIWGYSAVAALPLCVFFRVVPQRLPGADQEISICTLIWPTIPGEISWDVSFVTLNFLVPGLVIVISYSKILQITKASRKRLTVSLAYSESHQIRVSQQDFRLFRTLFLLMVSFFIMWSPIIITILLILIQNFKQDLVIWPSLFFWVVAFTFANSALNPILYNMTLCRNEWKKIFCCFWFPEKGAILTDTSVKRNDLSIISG

KCC2 = target: T2, KCC2 (Homo sapiens, UniProt Q9H2X9)
T2 sequence (Q9H2X9 1-1139): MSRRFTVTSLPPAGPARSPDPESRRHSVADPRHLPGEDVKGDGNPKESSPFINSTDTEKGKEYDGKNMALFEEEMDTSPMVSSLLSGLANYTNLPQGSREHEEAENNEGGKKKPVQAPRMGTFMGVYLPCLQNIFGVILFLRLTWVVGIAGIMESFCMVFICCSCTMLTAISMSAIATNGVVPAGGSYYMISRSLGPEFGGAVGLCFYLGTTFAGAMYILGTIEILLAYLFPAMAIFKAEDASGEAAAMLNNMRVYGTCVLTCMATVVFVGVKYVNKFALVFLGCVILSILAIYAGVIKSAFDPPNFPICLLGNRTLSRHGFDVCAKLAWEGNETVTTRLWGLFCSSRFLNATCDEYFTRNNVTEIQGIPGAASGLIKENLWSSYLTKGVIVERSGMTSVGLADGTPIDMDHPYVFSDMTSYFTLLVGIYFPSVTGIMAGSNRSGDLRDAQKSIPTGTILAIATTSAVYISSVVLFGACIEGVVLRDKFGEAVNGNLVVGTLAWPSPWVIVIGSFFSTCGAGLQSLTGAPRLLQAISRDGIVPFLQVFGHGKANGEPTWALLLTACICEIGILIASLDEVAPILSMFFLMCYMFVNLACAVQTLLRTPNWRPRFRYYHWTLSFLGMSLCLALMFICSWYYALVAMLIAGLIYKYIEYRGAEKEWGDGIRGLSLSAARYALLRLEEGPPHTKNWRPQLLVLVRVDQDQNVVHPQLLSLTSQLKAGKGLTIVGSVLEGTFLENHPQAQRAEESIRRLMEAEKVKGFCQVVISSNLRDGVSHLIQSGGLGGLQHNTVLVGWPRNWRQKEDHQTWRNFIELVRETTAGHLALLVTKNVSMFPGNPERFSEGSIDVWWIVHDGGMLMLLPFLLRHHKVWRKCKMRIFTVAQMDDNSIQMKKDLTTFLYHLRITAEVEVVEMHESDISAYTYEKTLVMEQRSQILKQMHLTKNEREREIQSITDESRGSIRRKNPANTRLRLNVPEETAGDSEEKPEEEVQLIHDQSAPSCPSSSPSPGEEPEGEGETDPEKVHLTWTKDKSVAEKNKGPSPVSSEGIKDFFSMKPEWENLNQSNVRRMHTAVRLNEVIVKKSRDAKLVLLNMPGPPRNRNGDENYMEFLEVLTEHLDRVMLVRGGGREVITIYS

[1] = in vivo

Sequence of FFA1 (O14842 whole entry): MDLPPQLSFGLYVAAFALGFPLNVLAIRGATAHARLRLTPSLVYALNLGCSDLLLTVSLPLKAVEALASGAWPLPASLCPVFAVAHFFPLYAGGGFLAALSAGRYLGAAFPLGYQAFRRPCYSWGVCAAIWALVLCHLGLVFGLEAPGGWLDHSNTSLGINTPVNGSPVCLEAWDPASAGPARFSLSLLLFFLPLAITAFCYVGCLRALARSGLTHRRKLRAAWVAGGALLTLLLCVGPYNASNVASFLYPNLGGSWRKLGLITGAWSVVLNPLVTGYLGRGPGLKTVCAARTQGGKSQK

FFA1 pEC50 (FFA1)	GPR120 pEC50 (GPR120)	Compound	further results
	4.3	CCCCCCCCCCCCCCCC(=O)O [Palmitic Acid (C16:0), Palmitic Acid]	
5.0-5.6*		CN(CCOc1ccc(CC2SC(=O)NC2=O)cc1)c1ccccn1 (stereo not shown) [Rosiglitazone]	

The remaining lines, values behind:

Compound	FFA1 pEC50 (FFA1)	GPR120 pEC50 (GPR120)	further results
CC(C)(CCCCCCCCCCC(C)(C)CC(=O)O)CC(=O)O [MEDICA16]	5.5-5.9*	<5.0	
CCCCCCCC/C=C\CCCCCCCC(=O)O [Oleic acid (C18:l), Oleic acid]		4.5	
Cc1csc(NC(=O)CSc2ccc(-c3ccccc3)nn2)n1 [VU0240551]			selectivity KCC2 over NKCC1 (KCC2): selective for KCC2 over NKCC1
N=C(N)NC(=O)c1cnn(-c2cccc3ncccc23)c1C1CC1 [Zoniporide]			neurotoxic effects [1]: causes peripheral sensory axonopathy
